Values quoted from earlier work in US10328040B2, “Therapeutic methods” (ARIZONA BOARD OF REGENTS ON BEHALF OF ARIZONA STATE …, priority 2014, dated 2019).

How the values were obtained:
[1] = tested on: hRXR; conditions: Caco-2 cells
[2] = target: hRXR; conditions: Caco-2 cells; remark: listed apart in the source
[3] = target: hRXRβ (Homo sapiens, UniProt P28702); conditions: read-out: EC50 for the hRXRβ isoform
[4] = tested on: RXR β; conditions: CV-1 cell line; read-out: EC50 for RXR β subtype
[5] = tested on: RXR γ; conditions: CV-1 cell line; read-out: EC50 for RXR γ subtype
[6] = tested on: rat model of Parkinson's disease; conditions: low dose

Sequence of hRXRβ (P28702 whole entry, canonical isoform): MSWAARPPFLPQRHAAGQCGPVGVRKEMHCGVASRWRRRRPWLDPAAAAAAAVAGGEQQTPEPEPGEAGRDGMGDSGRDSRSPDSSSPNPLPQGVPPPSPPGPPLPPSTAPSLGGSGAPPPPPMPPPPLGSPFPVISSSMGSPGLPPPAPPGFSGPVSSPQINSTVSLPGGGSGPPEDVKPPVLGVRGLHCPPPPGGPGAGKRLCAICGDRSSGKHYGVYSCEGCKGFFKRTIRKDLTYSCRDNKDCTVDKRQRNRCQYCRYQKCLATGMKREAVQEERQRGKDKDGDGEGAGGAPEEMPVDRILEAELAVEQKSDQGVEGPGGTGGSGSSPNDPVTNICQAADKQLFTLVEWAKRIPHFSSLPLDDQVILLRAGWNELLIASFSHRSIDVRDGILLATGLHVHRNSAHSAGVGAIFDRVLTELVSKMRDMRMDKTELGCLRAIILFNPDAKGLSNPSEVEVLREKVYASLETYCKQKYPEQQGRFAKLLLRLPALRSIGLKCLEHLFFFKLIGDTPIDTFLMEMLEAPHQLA

C=C(c1ccc(C(=O)O)c(F)c1)c1cc2c(cc1C)C(C)(C)CCC2(C)C [Compound 3]
EC50 [1]: 43 nM | Kd [2]: 12 nM

Cc1cc2c(cc1-c1cc(/C=C/C(=O)O)ccc1O)C(C)(C)CCC2(C)C [CD3254, (E)-3-(3-(1,2,3,4-tetrahydro-1,1,4,4,6-pentamethylnaphthylen-7-yl)-4-hydroxyphenyl)acrylic Acid]
EC50 [3]: ~10 nM

C=C(c1ccc(C(=O)O)cc1)c1cc2c(cc1C)C(C)(C)CCC2(C)C [Bexarotene]
PD symptoms [6]: marked improvement in the PD symptoms | dopamine cells and natural behavior ([6]; rat model of PD): restored dopamine cells and natural behavior
